The test system of the test is MOLM-13 cells. The test can be described thus: MOLM-13 Cell Proliferation Assay (indicator of DHODH inhibition). It counts as cell-based. The settings on record: Homo sapiens, 72 Hours of culture, CellTiter-Glo, no uridine. Summed up:
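Proliferation readout via CellTiter-Glo luminescence after 72 h compound treatment (37 °C, 5% CO2, 0.5% DMSO) of MOLM-13 cells seeded at 10^4 per well in RPMI 1640/10% FBS, used as a DHODH-inhibition indicator since these cells rely on de novo pyrimidine synthesis.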
For orientation: In ATP-based viability assays light output follows the ATP content of the culture.
`Cc1ccc([C@H]2c3[nH]c4ccc(Cl)cc4c3CCN2c2nc(C)nc(C#N)n2)cc1` [Compound 411, 4-[(1S)-6-chloro-1-(4-methylphenyl)-1,3,4,9-tetrahydro-2H-pyrido[3,4-b]indol-2-yl]-6-methyl-1,3,5-triazine-2-carbonitrile] returned an IC50 of 3.7 nM.

The compound `Cc1ccc([C@H]2c3[nH]c4ccc(Cl)cc4c3CCN2c2nc(C)c(F)c(C)n2)c(F)c1F` [Compound 412, (1S)-6-chloro-1-(2,3-difluoro-4-methylphenyl)-2-(5-fluoro-4,6-dimethylpyrimidin-2-yl)-2,3,4,9-tetrahydro-1H-pyrido[3,4-b]indole] returned an IC50 of 1 nM.

In turn, `Cc1ccc([C@H]2c3[nH]c4ccc(Cl)cc4c3CCN2c2nc(C)c(F)c(C#N)n2)c(F)c1F` [Compound 413, 2-[(1S)-6-chloro-1-(2,3-difluoro-4-methylphenyl)-1,3,4,9-tetrahydro-2H-pyrido[3,4-b]indol-2-yl]-5-fluoro-6-methylpyrimidine-4-carbonitrile] gave an IC50 of 0.8 nM.

Regarding `N#Cc1ncnc(N2CCc3c([nH]c4ccc(Cl)cc34)[C@@H]2c2cnc(N3CCOCC3)nc2)n1` [Compound 414, 4-{(1S)-6-chloro-1-[2-(morpholin-4-yl)pyrimidin-5-yl]-1,3,4,9-tetrahydro-2H-pyrido[3,4-b]indol-2-yl}-1,3,5-triazine-2-carbonitrile], half-maximal inhibition (IC50) required 38 nM.

The compound `Cc1nc(C#N)nc(N2CCc3c([nH]c4ccc(Cl)cc34)[C@@H]2c2cnc(N3CCOCC3)nc2)n1` [Compound 415, 4-{(1S)-6-chloro-1-[2-(morpholin-4-yl)pyrimidin-5-yl]-1,3,4,9-tetrahydro-2H-pyrido[3,4-b]indol-2-yl}-6-methyl-1,3,5-triazine-2-carbonitrile] returned an IC50 of 50.6 nM.

Compound `Cc1ccc([C@H]2c3[nH]c4ccc(Cl)cc4c3CCN2c2nc(C#N)cc(C(F)(F)F)n2)c(F)c1F` [Compound 416, 2-[(1S)-6-chloro-1-(2,3-difluoro-4-methylphenyl)-1,3,4,9-tetrahydro-2H-pyrido[3,4-b]indol-2-yl]-6-(trifluoromethyl)pyrimidine-4-carbonitrile] had an IC50 of 2.7 nM.

For the compound `Cc1ccc([C@H]2c3[nH]c4ccc(Cl)cc4c3CCN2c2nc(C)c(F)c(C#N)n2)cc1` [Compound 417, 2-[(1S)-6-chloro-1-(4-methylphenyl)-1,3,4,9-tetrahydro-2H-pyrido[3,4-b]indol-2-yl]-5-fluoro-6-methylpyrimidine-4-carbonitrile], it took 1.9 nM to reach half-maximal inhibition (IC50).

Consider `Cc1nc(N2CCc3c([nH]c4ccc(Cl)cc34)[C@@H]2c2cnc(N3CCOCC3)nc2)nc(C#N)c1F` [Compound 421, 2-{(1S)-6-chloro-1-[2-(morpholin-4-yl)pyrimidin-5-yl]-1,3,4,9-tetrahydro-2H-pyrido[3,4-b]indol-2-yl}-5-fluoro-6-methylpyrimidine-4-carbonitrile], for which half-maximal inhibition (IC50) required 1.7 nM.

With `Fc1ccc(C2c3[nH]c4ccc(Cl)cc4c3CCN2c2nccc(C(F)(F)F)n2)cc1` (centres unmarked) [Compound 422, 6-chloro-1-(4-fluorophenyl)-2-[4-(trifluoromethyl)pyrimidin-2-yl]-2,3,4,9-tetrahydro-1H-pyrido[3,4-b]indole], the IC50 came to 7.1 nM.

With `Fc1ccc(C2c3[nH]c4ccc(Cl)cc4c3CCN2c2nccc(C(F)(F)F)n2)c(F)c1` (centres unmarked) [Compound 423, 6-chloro-1-(2,4-difluorophenyl)-2-[4-(trifluoromethyl)pyrimidin-2-yl]-2,3,4,9-tetrahydro-1H-pyrido[3,4-b]indole], the IC50 turned out to be 6.1 nM.

In the case of `Cc1nc(N2CCc3c([nH]c4ccc(Cl)cc34)[C@@H]2c2ccc(N3CCOCC3)nc2)nc(C#N)c1F` [Compound 424, 2-{(1S)-6-chloro-1-[6-(morpholin-4-yl)pyridin-3-yl]-1,3,4,9-tetrahydro-2H-pyrido[3,4-b]indol-2-yl}-5-fluoro-6-methylpyrimidine-4-carbonitrile], half-maximal inhibition (IC50) required 2 nM.

The IC50 is the concentration at which inhibition is half-maximal.

These data come from US20250186437A1, “CARBOLINE COMPOUNDS AND USE THEREOF” (PTC Therapeutics, Inc., priority 2021, published 2025).
